{"source": "ChEMBL document CHEMBL1201861", "about": "“Genomics of Drug Sensitity in Cancer screening data, Wellcome Trust Sanger Institute”", "experiment_in_all_cases": "cells", "details_in_all_cases": "Homo sapiens", "key": {"D-247MG": {"test_system": "D-247MG", "type": "functional, cell-based", "description": "SANGER: Inhibition of human D-247MG cell growth in a cell viability assay."}, "D-336MG": {"test_system": "D-336MG", "type": "functional, cell-based", "description": "SANGER: Inhibition of human D-336MG cell growth in a cell viability assay."}, "Daudi": {"test_system": "Daudi", "type": "functional, cell-based", "description": "SANGER: Inhibition of human Daudi cell growth in a cell viability assay."}, "EB2": {"test_system": "EB2", "type": "functional, cell-based", "description": "SANGER: Inhibition of human EB2 cell growth in a cell viability assay."}, "HCC2157": {"test_system": "HCC2157", "type": "functional, cell-based", "description": "SANGER: Inhibition of human HCC2157 cell growth in a cell viability assay."}, "IST-SL2": {"test_system": "IST-SL2", "type": "functional, cell-based", "description": "SANGER: Inhibition of human IST-SL2 cell growth in a cell viability assay."}, "MDA-MB-134-VI": {"test_system": "MDA-MB-134-VI", "type": "functional, cell-based", "description": "SANGER: Inhibition of human MDA-MB-134-VI cell growth in a cell viability assay."}, "MOLT-13": {"test_system": "MOLT-13", "type": "functional, cell-based", "description": "SANGER: Inhibition of human MOLT-13 cell growth in a cell viability assay."}, "MRK-nu-1": {"test_system": "MRK-nu-1", "type": "functional, cell-based", "description": "SANGER: Inhibition of human MRK-nu-1 cell growth in a cell viability assay."}, "NCI-H2141": {"test_system": "NCI-H2141", "type": "functional, cell-based", "description": "SANGER: Inhibition of human NCI-H2141 cell growth in a cell viability assay."}, "NCI-H2171": {"test_system": "NCI-H2171", "type": "functional, cell-based", "description": "SANGER: Inhibition of human NCI-H2171 cell growth in a cell viability assay."}, "NCI-H719": {"test_system": "NCI-H719", "type": "functional, cell-based", "description": "SANGER: Inhibition of human NCI-H719 cell growth in a cell viability assay."}, "NCI-H748": {"test_system": "NCI-H748", "type": "functional, cell-based", "description": "SANGER: Inhibition of human NCI-H748 cell growth in a cell viability assay."}, "P31-FUJ": {"test_system": "P31-FUJ", "type": "functional, cell-based", "description": "SANGER: Inhibition of human P31-FUJ cell growth in a cell viability assay."}, "U-698-M": {"test_system": "U-698-M", "type": "functional, cell-based", "description": "SANGER: Inhibition of human U-698-M cell growth in a cell viability assay."}, "Ca9-22": {"test_system": "Ca9-22", "type": "functional, cell-based", "description": "SANGER: Inhibition of human Ca9-22 cell growth in a cell viability assay."}, "Detroit 562": {"test_system": "Detroit 562", "type": "functional, cell-based", "description": "SANGER: Inhibition of human Detroit562 cell growth in a cell viability assay."}, "EFO-21": {"test_system": "EFO-21", "type": "functional, cell-based", "description": "SANGER: Inhibition of human EFO-21 cell growth in a cell viability assay."}, "GP5d": {"test_system": "GP5d", "type": "functional, cell-based", "description": "SANGER: Inhibition of human GP5d cell growth in a cell viability assay."}, "HCC38": {"test_system": "HCC38", "type": "functional, cell-based", "description": "SANGER: Inhibition of human HCC38 cell growth in a cell viability assay."}, "HO-1-N-1": {"test_system": "HO-1-N-1", "type": "functional, cell-based", "description": "SANGER: Inhibition of human HO-1-N-1 cell growth in a cell viability assay."}, "JEG-3": {"test_system": "JEG-3", "type": "functional, cell-based", "description": "SANGER: Inhibition of human JEG-3 cell growth in a cell viability assay."}, "KYSE-180": {"test_system": "KYSE-180", "type": "functional, cell-based", "description": "SANGER: Inhibition of human KYSE-180 cell growth in a cell viability assay."}, "KYSE-510": {"test_system": "KYSE-510", "type": "functional, cell-based", "description": "SANGER: Inhibition of human KYSE-510 cell growth in a cell viability assay."}, "LCLC-97TM1": {"test_system": "LCLC-97TM1", "type": "functional, cell-based", "description": "SANGER: Inhibition of human LCLC-97TM1 cell growth in a cell viability assay."}, "LN-405": {"test_system": "LN-405", "type": "functional, cell-based", "description": "SANGER: Inhibition of human LN-405 cell growth in a cell viability assay."}, "M14": {"test_system": "M14", "type": "functional, cell-based", "description": "SANGER: Inhibition of human M14 cell growth in a cell viability assay."}, "MC-IXC": {"test_system": "MC-IXC", "type": "functional, cell-based", "description": "SANGER: Inhibition of human MC-IXC cell growth in a cell viability assay."}, "MCF7": {"test_system": "MCF7", "type": "functional, cell-based", "description": "SANGER: Inhibition of human MCF7 cell growth in a cell viability assay."}, "MEL-JUSO": {"test_system": "MEL-JUSO", "type": "functional, cell-based", "description": "SANGER: Inhibition of human MEL-JUSO cell growth in a cell viability assay."}, "MKN-28": {"test_system": "MKN-28", "type": "functional, cell-based", "description": "SANGER: Inhibition of human MKN28 cell growth in a cell viability assay."}, "NCI-H1993": {"test_system": "NCI-H1993", "type": "functional, cell-based", "description": "SANGER: Inhibition of human NCI-H1993 cell growth in a cell viability assay."}, "NCI-H2009": {"test_system": "NCI-H2009", "type": "functional, cell-based", "description": "SANGER: Inhibition of human NCI-H2009 cell growth in a cell viability assay."}, "NCI-H650": {"test_system": "NCI-H650", "type": "functional, cell-based", "description": "SANGER: Inhibition of human NCI-H650 cell growth in a cell viability assay."}, "OVCAR-8": {"test_system": "OVCAR-8", "type": "functional, cell-based", "description": "SANGER: Inhibition of human OVCAR-8 cell growth in a cell viability assay."}, "RD": {"test_system": "RD", "type": "functional, cell-based", "description": "SANGER: Inhibition of human RD cell growth in a cell viability assay."}, "S-117": {"test_system": "S-117", "type": "functional, cell-based", "description": "SANGER: Inhibition of human S-117 cell growth in a cell viability assay."}, "SBC-5": {"test_system": "SBC-5", "type": "functional, cell-based", "description": "SANGER: Inhibition of human SBC-5 cell growth in a cell viability assay."}, "SCC-4": {"test_system": "SCC-4", "type": "functional, cell-based", "description": "SANGER: Inhibition of human SCC-4 cell growth in a cell viability assay."}, "SK-HEP1": {"test_system": "SK-HEP1", "type": "functional, cell-based, SK-HEP-1", "description": "SANGER: Inhibition of human SK-HEP-1 cell growth in a cell viability assay."}, "SK-LU-1": {"test_system": "SK-LU-1", "type": "functional, cell-based", "description": "SANGER: Inhibition of human SK-LU-1 cell growth in a cell viability assay."}, "SK-MEL-24": {"test_system": "SK-MEL-24", "type": "functional, cell-based", "description": "SANGER: Inhibition of human SK-MEL-24 cell growth in a cell viability assay."}, "SW1463": {"test_system": "SW1463", "type": "functional, cell-based", "description": "SANGER: Inhibition of human SW1463 cell growth in a cell viability assay."}, "SW1710": {"test_system": "SW1710", "type": "functional, cell-based", "description": "SANGER: Inhibition of human SW1710 cell growth in a cell viability assay."}, "SW-620": {"test_system": "SW-620", "type": "functional, cell-based", "description": "SANGER: Inhibition of human SW620 cell growth in a cell viability assay."}, "SAOS-2": {"test_system": "SAOS-2", "type": "functional, cell-based", "description": "SANGER: Inhibition of human Saos-2 cell growth in a cell viability assay."}, "SiHa": {"test_system": "SiHa", "type": "functional, cell-based", "description": "SANGER: Inhibition of human SiHa cell growth in a cell viability assay."}, "T98G": {"test_system": "T98G", "type": "functional, cell-based", "description": "SANGER: Inhibition of human T98G cell growth in a cell viability assay."}, "23132-87": {"test_system": "23132-87", "type": "functional, cell-based", "description": "SANGER: Inhibition of human 23132-87 cell growth in a cell viability assay."}, "5637": {"test_system": "5637", "type": "functional, cell-based", "description": "SANGER: Inhibition of human 5637 cell growth in a cell viability assay."}, "639-V": {"test_system": "639-V", "type": "functional, cell-based", "description": "SANGER: Inhibition of human 639-V cell growth in a cell viability assay."}, "647-V": {"test_system": "647-V", "type": "functional, cell-based", "description": "SANGER: Inhibition of human 647-V cell growth in a cell viability assay."}, "A2058": {"test_system": "A2058", "type": "functional, cell-based", "description": "SANGER: Inhibition of human A2058 cell growth in a cell viability assay."}, "ABC-1": {"test_system": "ABC-1", "type": "functional, cell-based", "description": "SANGER: Inhibition of human ABC-1 cell growth in a cell viability assay."}, "BHT-101": {"test_system": "BHT-101", "type": "functional, cell-based", "description": "SANGER: Inhibition of human BHT-101 cell growth in a cell viability assay."}, "BT-20": {"test_system": "BT-20", "type": "functional, cell-based", "description": "SANGER: Inhibition of human BT-20 cell growth in a cell viability assay."}, "C32": {"test_system": "C32", "type": "functional, cell-based", "description": "SANGER: Inhibition of human C32 cell growth in a cell viability assay."}, "TYK-nu": {"test_system": "TYK-nu", "type": "functional, cell-based", "description": "SANGER: Inhibition of human TYK-nu cell growth in a cell viability assay."}, "YAPC": {"test_system": "YAPC", "type": "functional, cell-based", "description": "SANGER: Inhibition of human YAPC cell growth in a cell viability assay."}, "CAPAN-1": {"test_system": "CAPAN-1", "type": "functional, cell-based", "description": "SANGER: Inhibition of human CAPAN-1 cell growth in a cell viability assay."}}, "note": "pIC50: −log10 of the molar value.", "data": [{"smiles": "Cc1ccc(NC(=O)c2cccc(C(C)(C)C#N)c2)cc1Nc1ccc2ncn(C)c(=O)c2c1", "values": [{"measurement": "pIC50", "setting": "D-247MG", "result": "< 5.40"}, {"measurement": "pIC50", "setting": "D-336MG", "result": "< 5.40"}, {"measurement": "pIC50", "setting": "Daudi", "result": "< 5.40"}, {"measurement": "pIC50", "setting": "EB2", "result": "< 5.40"}, {"measurement": "pIC50", "setting": "HCC2157", "result": "< 5.40"}, {"measurement": "pIC50", "setting": "IST-SL2", "result": "< 5.40"}, {"measurement": "pIC50", "setting": "MDA-MB-134-VI", "result": "< 5.40"}, {"measurement": "pIC50", "setting": "MOLT-13", "result": "< 5.40"}, {"measurement": "pIC50", "setting": "MRK-nu-1", "result": "< 5.40"}, {"measurement": "pIC50", "setting": "NCI-H2141", "result": "< 5.40"}, {"measurement": "pIC50", "setting": "NCI-H2171", "result": "< 5.40"}, {"measurement": "pIC50", "setting": "NCI-H719", "result": "< 5.40"}, {"measurement": "pIC50", "setting": "NCI-H748", "result": "< 5.40"}, {"measurement": "pIC50", "setting": "P31-FUJ", "result": "< 5.40"}, {"measurement": "pIC50", "setting": "U-698-M", "result": "< 5.40"}]}, {"smiles": "CC[C@@]1(O)C(=O)OCc2c1cc1n(c2=O)Cc2cc3ccccc3nc2-1", "note": "[CAMPTOTHECIN]", "values": [{"measurement": "pIC50", "setting": "Ca9-22", "result": 8.66}, {"measurement": "pIC50", "setting": "D-247MG", "result": 7.40}, {"measurement": "pIC50", "setting": "D-336MG", "result": 8.28}, {"measurement": "pIC50", "setting": "Detroit 562", "result": 7.87}, {"measurement": "pIC50", "setting": "EFO-21", "result": 7.69}, {"measurement": "pIC50", "setting": "GP5d", "result": 7.90}, {"measurement": "pIC50", "setting": "HCC38", "result": 7.89}, {"measurement": "pIC50", "setting": "HO-1-N-1", "result": 9.08}, {"measurement": "pIC50", "setting": "JEG-3", "result": 7.88}, {"measurement": "pIC50", "setting": "KYSE-180", "result": 7.88}, {"measurement": "pIC50", "setting": "KYSE-510", "result": 8.17}, {"measurement": "pIC50", "setting": "LCLC-97TM1", "result": 8.09}, {"measurement": "pIC50", "setting": "LN-405", "result": "< 7.00"}, {"measurement": "pIC50", "setting": "M14", "result": 8.00}, {"measurement": "pIC50", "setting": "MC-IXC", "result": 9.29}, {"measurement": "pIC50", "setting": "MCF7", "result": 8.19}, {"measurement": "pIC50", "setting": "MEL-JUSO", "result": 7.45}, {"measurement": "pIC50", "setting": "MKN-28", "result": 7.29}, {"measurement": "pIC50", "setting": "MOLT-13", "result": 8.75}, {"measurement": "pIC50", "setting": "NCI-H1993", "result": "< 7.00"}, {"measurement": "pIC50", "setting": "NCI-H2009", "result": 7.17}, {"measurement": "pIC50", "setting": "NCI-H650", "result": 7.26}, {"measurement": "pIC50", "setting": "OVCAR-8", "result": 8.14}, {"measurement": "pIC50", "setting": "RD", "result": 7.80}, {"measurement": "pIC50", "setting": "S-117", "result": 7.11}, {"measurement": "pIC50", "setting": "SBC-5", "result": 7.49}, {"measurement": "pIC50", "setting": "SCC-4", "result": 7.72}, {"measurement": "pIC50", "setting": "SK-HEP1", "result": 8.14}, {"measurement": "pIC50", "setting": "SK-LU-1", "result": 8.33}, {"measurement": "pIC50", "setting": "SK-MEL-24", "result": 7.41}, {"measurement": "pIC50", "setting": "SW1463", "result": 7.29}, {"measurement": "pIC50", "setting": "SW1710", "result": 7.47}, {"measurement": "pIC50", "setting": "SW-620", "result": 8.39}, {"measurement": "pIC50", "setting": "SAOS-2", "result": 7.75}, {"measurement": "pIC50", "setting": "SiHa", "result": 7.06}, {"measurement": "pIC50", "setting": "T98G", "result": 7.57}, {"measurement": "pIC50", "setting": "23132-87", "result": 7.71}, {"measurement": "pIC50", "setting": "5637", "result": 8.38}, {"measurement": "pIC50", "setting": "639-V", "result": 9.77}, {"measurement": "pIC50", "setting": "647-V", "result": 9.05}, {"measurement": "pIC50", "setting": "A2058", "result": 8.44}, {"measurement": "pIC50", "setting": "ABC-1", "result": 8.46}, {"measurement": "pIC50", "setting": "BHT-101", "result": 8.74}, {"measurement": "pIC50", "setting": "BT-20", "result": 7.59}, {"measurement": "pIC50", "setting": "C32", "result": 7.87}, {"measurement": "pIC50", "setting": "TYK-nu", "result": 8.31}, {"measurement": "pIC50", "setting": "YAPC", "result": 7.53}, {"measurement": "pIC50", "setting": "CAPAN-1", "result": 7.83}]}]}
